Assay results: article PMC8895463 (Journal of Agricultural and Food Chemistry, 2022)

Biological target: T1, CYP3A4 (Homo sapiens, UniProt P08684)
T1 construct: recombinant; E. coli microsomes; with NADPH cytochrome P450 reductase (POR, P16435), coexpressed
Assay: fluorogenic Vivid BOMR substrate assay with recombinant CYP3A4/POR E. coli microsomes
Type: biochemical

T1 sequence (P08684 13-503 S18F): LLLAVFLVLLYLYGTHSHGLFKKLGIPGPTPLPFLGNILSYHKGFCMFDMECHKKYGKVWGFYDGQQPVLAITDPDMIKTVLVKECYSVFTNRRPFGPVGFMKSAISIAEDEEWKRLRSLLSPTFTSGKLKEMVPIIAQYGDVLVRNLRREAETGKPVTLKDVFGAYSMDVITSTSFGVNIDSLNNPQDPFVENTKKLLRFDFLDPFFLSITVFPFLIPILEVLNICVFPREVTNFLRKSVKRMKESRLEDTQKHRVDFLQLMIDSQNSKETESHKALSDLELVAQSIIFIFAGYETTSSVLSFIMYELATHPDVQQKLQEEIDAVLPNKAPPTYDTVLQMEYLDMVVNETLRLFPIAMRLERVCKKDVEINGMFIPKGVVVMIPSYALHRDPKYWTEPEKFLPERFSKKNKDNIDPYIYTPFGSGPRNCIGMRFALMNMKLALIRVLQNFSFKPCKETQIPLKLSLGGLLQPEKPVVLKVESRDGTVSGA
T1 sequence (P16435 2-677, further chain): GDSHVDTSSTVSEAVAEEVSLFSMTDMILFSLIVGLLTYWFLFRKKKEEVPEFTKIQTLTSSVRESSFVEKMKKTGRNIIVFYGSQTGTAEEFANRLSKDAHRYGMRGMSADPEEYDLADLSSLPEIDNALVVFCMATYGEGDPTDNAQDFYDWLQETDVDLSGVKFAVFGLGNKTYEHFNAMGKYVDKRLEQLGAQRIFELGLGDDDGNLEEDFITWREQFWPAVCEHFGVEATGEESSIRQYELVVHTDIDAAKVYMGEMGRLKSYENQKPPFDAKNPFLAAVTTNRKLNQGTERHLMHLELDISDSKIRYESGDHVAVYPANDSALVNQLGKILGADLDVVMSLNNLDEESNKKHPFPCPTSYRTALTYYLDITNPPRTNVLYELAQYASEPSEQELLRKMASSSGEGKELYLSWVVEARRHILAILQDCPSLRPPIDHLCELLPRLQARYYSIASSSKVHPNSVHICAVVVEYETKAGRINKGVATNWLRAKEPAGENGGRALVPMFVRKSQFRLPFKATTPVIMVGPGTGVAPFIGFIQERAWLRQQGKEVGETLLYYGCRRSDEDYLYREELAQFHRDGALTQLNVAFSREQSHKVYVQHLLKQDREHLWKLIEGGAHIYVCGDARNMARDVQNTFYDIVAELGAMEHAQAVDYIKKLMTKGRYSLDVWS

With `COc1ccc(-c2cc(=O)c3c(O)cc(O)cc3o2)cc1-c1c(O)cc(O)c2c(=O)cc(-c3ccc(O)cc3)oc12` [bilobetin] the IC50 was 12.9 µM.
